Source: DBAASP
≈ marks a conversion by molar mass, not a printed value.

Columns and labels:
Assay in all cases: ≥ marks a high value that may be exact or a test limit, other limits are often not marked, values filed in µg/mL are converted to µM
Candida glabrata = system: Candida glabrata
[1] = system: Candida albicans IHEM 8060
[2] = system: Rhodococcus rhodochrous X15
[3] = system: Bacillus licheniformis X39
[4] = system: Staphylococcus aureus ATCC 2592
[5] = system: Staphylococcus carnosus KHS
[6] = system: Psychrobacter faecalis X29
[7] = system: Staphylococcus aureus NCTC 8325
[8] = system: Enterococcus faecalis ATCC 29212
[9] = system: Enterobacter cloacae HNTCC 53001
Candida parapsilosis = system: Candida parapsilosis
Candida krusei = system: Candida krusei
Candida albicans = system: Candida albicans
[10] = system: Proteus mirabilis ATCC 25933
[11] = system: Pseudomonas aeruginosa ATCC 27853
Candida krusei ATCC 6258 = system: Candida krusei ATCC 6258
[12] = system: Escherichia coli ATCC 25922
[13] = system: Candida parapsilosis ATCC 22019
[14] = system: Candida albicans ATCC 90028
[15] = system: Batrachochytrium dendrobatidis JEL-197
[16] = system: Klebsiella pneumoniae KK3 9904
Candida tropicalis = system: Candida tropicalis
[17] = system: Staphylococcus epidermidis RP62A
Escherichia coli 5509 = system: Escherichia coli 5509
[18] = system: Staphylococcus aureus ATCC 29213
[19] = system: Klebsiella pneumoniae 01-239
Escherichia coli 09-240 = system: Escherichia coli 09-240
[20] = system: Pseudomonas aeruginosa 3599
[21] = system: Staphylococcus aureus 01-001
Escherichia coli 09-280 = system: Escherichia coli 09-280
[22] = system: Enterobacter cloacae 14-262
[23] = system: Acinetobacter baumannii 5821
[24] = system: Staphylococcus aureus 06-051
[25] = system: Enterobacter cloacae 06-267
[26] = system: Pseudomonas aeruginosa 5106
Escherichia coli 170 = system: Escherichia coli 170
[27] = system: Staphylococcus aureus ATCC 25923
[28] = system: Klebsiella pneumoniae 01-252
[29] = system: Pseudomonas aeruginosa ATCC 9027
[30] = system: Escherichia coli IFO 3301
[31] = system: Bacillus subtilis IFO 3336

CC[C@H](C)[C@@H]1NC(=O)[C@@H](N)CSSC[C@@H]2NC(=O)[C@@H]3CSSC[C@@H](C(=O)N[C@@H](CCCN=C(N)N)C(=O)O)NC(=O)[C@H](Cc4ccc(O)cc4)NC(=O)CNC(=O)[C@H](C)NC(=O)[C@H](C(C)C)NC(=O)[C@H](Cc4c[nH]c5ccccc45)NC(=O)CNC(=O)[C@@H]4CCCN4C(=O)[C@H](CCC(=O)O)NC(=O)[C@H](CCCCN)NC(=O)[C@H](Cc4cnc[nH]4)NC(=O)[C@H](CSSC[C@H](NC(=O)CNC(=O)[C@H](CC(N)=O)NC(=O)CNC(=O)[C@H](CC(N)=O)NC(=O)[C@H](CCCCN)NC1=O)C(=O)N[C@@H](CCC(N)=O)C(=O)N1CCC[C@H]1C(=O)N[C@@H](CC(=O)O)C(=O)NCC(=O)N[C@@H](CO)C(=O)N[C@@H](CCC(N)=O)C(=O)NCC(=O)N[C@@H](CC(N)=O)C(=O)N3)NC(=O)[C@H](Cc1ccc(O)cc1)NC(=O)[C@H](CCCN=C(N)N)NC(=O)[C@H](CO)NC2=O [CIKNGNGCQPDGSQGNCCSRYCHKEPGWVAGYCR]
MIC (Candida glabrata): 17.3 µM (≈ 63.9 µg/mL) | MIC [1]: 17.3 µM (≈ 63.9 µg/mL)

CC[C@H](C)[C@@H]1NC(=O)[C@H](CCCCN)NC(=O)[C@@H](NC(=O)[C@H](Cc2ccccc2)NC(=O)[C@H](CC(C)C)NC(=O)[C@@H](NC(=O)[C@@H]2CCCN2C(=O)[C@@H](NC(=O)[C@@H](NC(=O)[C@H](CCCCN)NC(=O)CNC(=O)[C@@H](NC(=O)[C@H](CC(C)C)NC(=O)CNC(=O)[C@H](CC(C)C)NC(=O)[C@H](CC(C)C)NC(=O)[C@H](CO)NC(=O)CNC(=O)[C@H](CC(C)C)NC(=O)[C@@H](N)Cc2ccccc2)C(C)C)C(C)C)C(C)C)[C@@H](C)O)CSSC[C@@H](C(=O)O)NC(=O)[C@H](CCCCN)NC(=O)[C@H](CCCCN)NC(=O)[C@H](CO)NC1=O [FLGSLLGLVGKVVPTLFCKISKKC]
MIC [2]: 1.22 µM (≈ 3.1 µg/mL) | MIC [3]: 9.8 µM (≈ 25 µg/mL) | MIC [4]: 1.22 µM (≈ 3.1 µg/mL) | MIC [5]: 4.9 µM (≈ 12.5 µg/mL) | MIC [6]: 4.9 µM (≈ 12.5 µg/mL)

CC[C@H](C)[C@H](NC(=O)[C@@H]1CCCN1C(=O)[C@H](CC(C)C)NC(=O)[C@@H](N)Cc1ccccc1)C(=O)N[C@@H](CC(C)C)C(=O)N[C@@H](C)C(=O)N[C@@H](CO)C(=O)N[C@@H](CC(C)C)C(=O)N[C@@H](C)C(=O)N[C@@H](C)C(=O)N[C@@H](CCCCN)C(=O)N[C@@H](Cc1ccccc1)C(=O)NCC(=O)N1CCC[C@H]1C(=O)N[C@@H](CCCCN)C(=O)N[C@@H](CC(C)C)C(=O)N[C@@H](Cc1ccccc1)C(=O)N[C@H]1CSSC[C@@H](C(=O)O)NC(=O)[C@H](CCCCN)NC(=O)[C@H](CCCCN)NC(=O)[C@H]([C@@H](C)O)NC(=O)[C@H](C(C)C)NC(=O)[C@H](CC(C)C)NC1=O [FLPILASLAAKFGPKLFCLVTKKC]
MIC [7]: 2 µM (≈ 5.21 µg/mL) | MIC [8]: 5 µM (≈ 13 µg/mL) | MIC [9]: 10 µM (≈ 26.1 µg/mL) | MIC (Candida parapsilosis): 10 µM (≈ 26.1 µg/mL) | MIC (Candida krusei): 10 µM (≈ 26.1 µg/mL) | MIC (Candida albicans): 5 µM (≈ 13 µg/mL) | MIC [10]: ≥ 40 µM | MIC [11]: 10 µM (≈ 26.1 µg/mL) | MIC (Candida krusei ATCC 6258): 5 µM (≈ 13 µg/mL) | MIC [12]: 17 µM (≈ 44.3 µg/mL) | MIC [13]: 5 µM (≈ 13 µg/mL) | MIC [14]: 3 µM (≈ 7.82 µg/mL) | MIC [15]: 12.5 µM (≈ 32.6 µg/mL) | MIC [16]: ≥ 40 µM | MIC (Candida tropicalis): 5 µM (≈ 13 µg/mL) | MIC [17]: 5 µM (≈ 13 µg/mL)

CC[C@H](C)[C@H](NC(=O)[C@H](C)NC(=O)[C@H](CC(N)=O)NC(=O)[C@H](CCCCN)NC(=O)[C@@H](NC(=O)CNC(=O)[C@H](CCC(=O)O)NC(=O)[C@H](Cc1c[nH]c2ccccc12)NC(=O)[C@H](CC(C)C)NC(=O)[C@H](CCCCN)NC(=O)CNC(=O)[C@H](Cc1c[nH]c2ccccc12)NC(=O)[C@H](Cc1ccccc1)NC(=O)CN)C(C)C)C(N)=O [GFWGKLWEGVKNAI]
MIC (Escherichia coli 5509): ≥ 32 µM | MIC [18]: 4 µM (≈ 6.42 µg/mL) | MIC [19]: 12 µM (≈ 19.2 µg/mL) | MIC (Escherichia coli 09-240): 14 µM (≈ 22.5 µg/mL) | MIC [11]: > 32 µM | MIC [12]: 10 µM (≈ 16 µg/mL) | MIC [20]: ≥ 32 µM | MIC [21]: 4 µM (≈ 6.42 µg/mL) | MIC (Escherichia coli 09-280): ≥ 32 µM | MIC [22]: 14 µM (≈ 22.5 µg/mL) | MIC [23]: 7 µM (≈ 11.2 µg/mL) | MIC [24]: 4 µM (≈ 6.42 µg/mL) | MIC [25]: ≥ 32 µM | MIC [26]: ≥ 32 µM | MIC (Escherichia coli 170): ≥ 32 µM | MIC [27]: 15 µM (≈ 24.1 µg/mL) | MIC [28]: ≥ 32 µM | MIC [29]: 10 µM (≈ 16 µg/mL)

NC(N)=NCCC[C@H](NC(=O)[C@H](CS)NC(=O)[C@H](CCCN=C(N)N)NC(=O)[C@H](CS)NC(=O)[C@H](CCCN=C(N)N)NC(=O)[C@H](CS)NC(=O)[C@H](CCCN=C(N)N)NC(=O)[C@H](CS)NC(=O)[C@@H](N)CCCN=C(N)N)C(=O)N[C@@H](CS)C(=O)O [RCRCRCRCRC]
MIC [30]: 15.2 µM (≈ 20 µg/mL) | MIC [31]: 7.61 µM (≈ 10 µg/mL)
